Data on ten molecules can be found in PMC4482410, “A Peptide Mimetic of 5-Acetylneuraminic Acid-Galactose Binds with High Avidity to Siglecs and NKG2D” (PLoS ONE, 2015).

Entries after “also recorded” stand apart in the source; their conditions may differ. Where no end group is shown, it is not given here. The star is where a group is joined. Biotin = O=C1N[C@H]2[C@H](CS[C@H]2CCCCC(=O)*)N1

The subject of one assay is Siglec-2. The conditions noted are these: ref Kelm et al. [68], cited from earlier work. An excerpt:
Most siglecs are inhibitory receptors containing an ITIM [9–12] and express full activity when a ligand is bound. As documented with Siglec-2 on B cells, a functional ligand binding site is required for tyrosine phosphorylation, recruitment of the phosphatase SHP-1, and inhibition of B cell activation.

In assay [1] the test system is siglecs. Put plainly: solid-phase binding of biotinylated tetravalent peptides to siglecs. Also on record: species or system human. Particulars: biotinylated peptides 2 μM. Here is the method:
(§1) Isothermal microcalorimetry was performed by TA Instruments Professional Services (New Castle, DE) by titrating 10 μM NKG2D (monomer concentration) (R&D Systems, Inc., Minneapolis, MN) with 100 μM svH1C in 50 mM Tris-HCl, pH 7.5, 150 mM NaCl, 0.1 mM EDTA. Recombinant human receptors were obtained from R&D Systems as chimeric proteins. NKG2D is a type II transmembrane protein and the extracellular lectin-type domain was fused at the N-terminus with a human IgG1 Fc domain. Recombinant siglecs contained a C-terminal IgG1 Fc domain or a His6–10 tag. The lyophilized proteins were reconstituted in phosphate-buffered saline, pH 7.2 (PBS), to 100 μg/mL. The Fc-chimeric proteins were bound to protein A/G-coated wells of microtiter plates (Pierce Biotechnology). His-tagged proteins were bound in Nickel-coated plates (Pierce Biotechnology). Sufficient proteins were added to wells to saturate the binding capacity of the wells. After a wash to remove unbound receptor, wells were blocked with 1% gelatin in wash buffer. Wash buffers were either 10 mM phosphate, pH 7.2; 10 mM HEPES, pH 7.4; or 50 mM Tris-HCl, pH.7.5, each in 150 mM NaCl containing 0.05% Tween-20. Biotinylated peptides were prepared as 2 μM solutions in the wash buffer and 50 μL (100 pmoles) were added to each well and incubated at room temperature for one hour. After four washes with 350 μL buffer containing 0.05% Tween-20, each assay was incubated with 50 μL of 1 μg/mL streptavidin-peroxidase (Sigma-Aldrich, St. Louis, MO). […] Absorbance was measured at 450 nm and converted to the amount of streptavidin-peroxidase bound with the specific activity of the conjugate determined under the conditions of the assay. […]
MAA is a mixture of M. amurensis leukoagglutinin (MAL) and M. amurensis hemagglutinin (MAH), both of which along with SNA1 bind preferentially to terminal Neu5Ac-Gal- sequences on complex glycans. Binding of the peptide to several lectins specific for monosaccharides was not detected. […]

Assay [2] has as its system lectins that bind monosaccharides. Particulars: Neu5Ac, Gal, GalNAc or fucose lectins; ref [29],[30]; cited from earlier work. An excerpt: We initially identified several sequences of amino acids that bound to specific plant lectins by screening phage display libraries. Sequences were further refined by in silico modeling of docking of a peptide into the sugar binding site of the crystal structures of lectins. These studies predicted that several short peptide sequences, 5 to 8 amino acids in length, would have significant affinity to lectins chosen as analogs of cell-surface receptors. […] MAA is a mixture of M. amurensis leukoagglutinin (MAL) and M. amurensis hemagglutinin (MAH), both of which along with SNA1 bind preferentially to terminal Neu5Ac-Gal- sequences on complex glycans. Binding of the peptide to several lectins specific for monosaccharides was not detected. We then assayed binding of svH1C to several siglecs, which comprise a family of cell-surface receptors that are specific for Neu5Ac-Gal/GalNAc- sequ ...

In another assay the target is CD45 (Homo sapiens) (UniProt P08575). Particulars: cited from earlier work.
Sequence of CD45 (Homo sapiens) (P08575 26-577): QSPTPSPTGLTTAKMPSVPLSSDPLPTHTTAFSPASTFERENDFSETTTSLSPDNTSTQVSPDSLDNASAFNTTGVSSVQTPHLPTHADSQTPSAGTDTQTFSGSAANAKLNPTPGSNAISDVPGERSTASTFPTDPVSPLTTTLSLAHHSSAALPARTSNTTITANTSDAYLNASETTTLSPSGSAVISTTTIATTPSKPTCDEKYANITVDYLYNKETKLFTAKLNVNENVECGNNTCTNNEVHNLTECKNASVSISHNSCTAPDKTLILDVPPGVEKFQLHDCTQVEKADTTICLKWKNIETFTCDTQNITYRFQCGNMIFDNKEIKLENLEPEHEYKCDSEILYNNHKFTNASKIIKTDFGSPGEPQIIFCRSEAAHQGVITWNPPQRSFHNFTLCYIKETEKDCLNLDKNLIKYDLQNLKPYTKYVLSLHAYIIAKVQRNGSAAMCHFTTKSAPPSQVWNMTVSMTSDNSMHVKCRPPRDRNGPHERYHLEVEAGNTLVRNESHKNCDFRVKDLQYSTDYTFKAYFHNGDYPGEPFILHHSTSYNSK
For another assay, the system named is plant lectins. The conditions noted are these: ref [29]; cited from earlier work. The text has this:
NKG2D is a homodimeric, type II receptor whose recognized ligands are cell-surface proteins MICA and MICB, which are major histocompatibility complex class I homologs. Other polypeptide ligands include ULBP, Rae-1 and H60 [26]. Extensive studies of binding of MICA and MICB [24–26] have shown that each homodimer binds a single ligand at the interface of the subunits. Each subunit of NKG2D also contains a lectin domain that binds glycans with specificity for Neu5Ac(α2,3)Gal. […] Binding was inhibited by fet ...

Assay [3] has as its system siglecs. Put plainly: inhibition of binding of svH1C to siglecs. Set-up: species or system human. The conditions noted are these: fetuin 10 μM or 30 μM; average of single values in two assays. Here is the method: as §1, with “buffer.” for “buffer. Wash buffers were either 10 mM phosphate, pH 7.2; 10 mM HEPES, pH 7.4; or 50 mM Tris-HCl, pH.7.5, each in 150 mM NaCl containing 0.05% Tween-20. Biotinylated peptides were prepared as 2 μM solutions in the wash buffer and 50 μL (100 pmoles) were added to each well and incubated at room temperature for one hour. After four washes with 350 μL buffer containing 0.05% Tween-20, each assay was incubated with 50 μL of 1 μg/mL streptavidin-peroxidase (Sigma-Aldrich, St. Louis, MO).”
Fig 3 Binding of svH1C to lectin-type receptors. […] SEM was determined for six assays from four independent experiments. […]

The target of assay [4] is T1, NKG2D (Homo sapiens, UniProt P26718).
T1 construct: the extracellular lectin-type domain was fused at the N-terminus with a human IgG1 Fc domain; purchased R&D Systems, Inc., Minneapolis, MN
T1 sequence (P26718 73-216 limits assumed): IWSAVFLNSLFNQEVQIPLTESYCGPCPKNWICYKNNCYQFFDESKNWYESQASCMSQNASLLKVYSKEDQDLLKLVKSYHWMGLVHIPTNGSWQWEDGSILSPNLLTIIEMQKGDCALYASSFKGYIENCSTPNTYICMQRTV
The assay can be described thus: inhibition of binding of svH1C to NKG2D. Particulars: added with 2 μM svH1C; PBS/0.05% Tween-20; average of single values from three separate assays; fetuin 5, 10, 30 μM; sialyllactose 12, 20, 40 μM. As to the method: as §1, with “buffer.” for “buffer. Wash buffers were either 10 mM phosphate, pH 7.2; 10 mM HEPES, pH 7.4; or 50 mM Tris-HCl, pH.7.5, each in 150 mM NaCl containing 0.05% Tween-20. Biotinylated peptides were prepared as 2 μM solutions in the wash buffer and 50 μL (100 pmoles) were added to each well and incubated at room temperature for one hour. After four washes with 350 μL buffer containing 0.05% Tween-20, each assay was incubated with 50 μL of 1 μg/mL streptavidin-peroxidase (Sigma-Aldrich, St. Louis, MO).”
Fig 4 Binding of svH1C to NKG2D. (A) The amount of bound peptide was measured after extensive washing with PBS containing 0.05% Tween-20. […]

The target in assay [5] is NKG2D. Particulars: approximately; ref [24]–[26]; cited from earlier work. As to the method:
NKG2D lacks a signaling motif in its cytoplasmic domain and functions as an activating receptor in association with adaptor proteins, DAP10 and DAP12 [75]. In addition to NKG2D, NK cells express other activating cytotoxicity receptors such as NKp30, NKp44 and NKp46. These receptors bind to tandemly multivalent heparan sulfate/heparin sequences with KD values of 0.3 to 2 μM [76]. Similarly to NKG2D, NKp46 also binds multivalent sialyl-Lewis^X with a KD of approximately 0.6 μM [77]. The native in vivo ligands for NKG2D are divergent proteins, MIC-A/B, ULBP, Rae-1 or H60, which bind the rec ...

Assay [6] addresses T2, recombinant human NKG2D, Fc chimera (human, UniProt P26718 73-216).
T2 construct: NKG2D, human, extracellular lectin-type domain; Type II transmembrane protein; source: bought: R&D Systems; not shown: Fc (human IgG1), N-terminal, kept
T2 sequence (looked up): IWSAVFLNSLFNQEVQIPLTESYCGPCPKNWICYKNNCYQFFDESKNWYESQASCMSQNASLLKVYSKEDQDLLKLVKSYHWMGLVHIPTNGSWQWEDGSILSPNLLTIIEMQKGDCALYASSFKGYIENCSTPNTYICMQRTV
Put plainly: ELISA; inhibition: fetuin (5, 10 or 30 μM) added along with 2 μM biotinylated svH1C to immobilised receptor; PBS with 0.05% Tween-20. (In general: ELISA stands for enzyme-linked immunosorbent assay.)

For orientation: IC50 means the concentration that gives 50% inhibition. As a reminder, the Kd is a measure of binding affinity in units of concentration.

Turning to `CO[C@]1(C(=O)O)C[C@H](O)[C@@H](NC(C)=O)[C@H]([C@H](O)[C@H](O)CNC(=O)c2ccc(-c3ccccc3)cc2)O1` [BPC-Neu5Ac], in the assay on Siglec-2 (after cells were treated with neuraminidase), the IC50 was 4 µM. For the same molecule, the “tyrosine phosphorylation and inhibitory activity of Siglec-2” value in the assay with Siglec-2 was “reduced tyrosine phosphorylation and attenuated the receptor’s inhibitory activity”.
With HPSLK [sv6B], the “binding of biotinylated tetravalent peptides to siglecs” value in the assay with siglecs [1] was “also bound to siglecs”. In assay [2], the “avidity to lectins that bind monosaccharides, relative to natural ligands” value is “several orders of magnitude greater than their natural ligands”.
With Siglec-2 (CD22) (from UniProt P20273), in the assay with CD45 (Homo sapiens), the Kd is 117 µM.
“[(VGGGSGGGS)2K]2K-ε-biotinyl-K-NH2 [peptide used as a negative control, reference compound]”: in the assay on siglecs [1], the “binding of biotinylated tetravalent peptides to siglecs” value is “no binding”.
For the molecule “digestion of fetuin with neuraminidase: fetuin digested with neuraminidase”, the “competition with svH1C for binding to plant lectins” value with plant lectins is on record as “nearly eliminated its ability to inhibit binding”.
“fetuin: fetal bovine fetuin (purity, 88%; cat. no. 341506, Calbiochem)”: the “competition with svH1C for binding to plant lectins” value with plant lectins is listed as “effectively competed”. Further, the “inhibition of binding of svH1C to siglecs by fetuin” value in the assay with siglecs [3] is on record as “inhibited; also recorded: as effective an inhibitor of binding of svH1C to NKG2D as it was of the binding of the peptide to siglecs”.
With sialyllactose [reference compound], the IC50 on NKG2D [4] was ~18 µM.

B1: MIC-A/B: native in vivo ligands for NKG2D; major histocompatibility complex class I homologs (protein, UniProt Q29983 24-383; Q29980 23-383, looked up)
MHC class I … 1: EPHSLRYNLTVLSWDGSVQSGFLTEVHLDGQPFLRCDRQKCRAKPQGQWAEDVLGNKTWDRETRDLTGNGKDLRMTLAHIKDQKEGLHSLQEIRVCEIHEDNSTRSSQHFYYDGELFLSQNLETKEWTMPQSSRAQTLAMNVRNFLKEDAMKTKTHYHAMHADCLQELRRYLKSGVVLRRTVPPMVNVTRSEASEGNITVTCRASGFYPWNITLSWRQDGVSLSHDTQQWGDVLPDGNGTYQTWVATRICQGEEQRFTCYMEHSGNHSTHPVPSGKVLVLQSHWQTFHVSAVAAAAIFVIIIFYVRCCKKKTSAAEGPELVSLQVLDQHPVGTSDHRDATQLGFQPLMSDLGSTGSTEGA
MHC class I … 2: AEPHSLRYNLMVLSQDGSVQSGFLAEGHLDGQPFLRYDRQKRRAKPQGQWAENVLGAKTWDTETEDLTENGQDLRRTLTHIKDQKGGLHSLQEIRVCEIHEDSSTRGSRHFYYDGELFLSQNLETQESTVPQSSRAQTLAMNVTNFWKEDAMKTKTHYRAMQADCLQKLQRYLKSGVAIRRTVPPMVNVTCSEVSEGNITVTCRASSFYPRNITLTWRQDGVSLSHNTQQWGDVLPDGNGTYQTWVATRIRQGEEQRFTCYMEHSGNHGTHPVPSGKALVLQSQRTDFPYVSAAMPCFVIIIILCVPCCKKKTSAAEGPELVSLQVLDQHPVGTGDHRDAAQLGFQPLMSATGSTGSTEGT
In the case of B1, the Kd at NKG2D [5] is ~1000 nM.

B2: fetal bovine fetuin (natural protein, UniProt P12763 19-359, looked up)
chain: IPLDPVAGYKEPACDDPDTEQAALAAVDYINKHLPRGYKHTLNQIDSVKVWPRRPTGEVYDIEIDTLETTCHVLDPTPLANCSVRQQTQHAVEGDCDIHVLKQDGQFSVLFTKCDSSPDSAEDVRKLCPDCPLLAPLNDSRVVHAVEVALATFNAESNGSYLQLVEISRAQFVPLPVSVSVEFAVAATDCIAKEVVDPTKCNLLAEKQYGFCKGSVIQKALGGEDVRVTCTLFQTQPVIPQPQPDGAEAEAPSAVPDAAGPTPSAAGPPVASVVVGPSVVAVPLPLHRAHYDLRHTFSGVASVESSSGEAFHVGKTPIVGQPSIPGGPVRLCPGRIRYFKI
modifications: three N-linked and three O-linked glycans per molecule, with termini Neu5Ac(α2,3)Gal or Neu5Ac(α2,6)Gal
notes: fetuin, fetal bovine; source: bought: Calbiochem, EMD Chemicals (purity, 88%)
With B2, in assay [6] (both partners purified), the IC50 is ~3000 nM.

B3: svH1C, biotin-tagged tetravalent peptide [(…)2K]2K-ε-biotinyl-K-NH2 (peptide)
chain 1: NPSHPLSGGGGS
chain 2: KKKK(Biotin)-NH2
modifications: also: tetravalent branched: four NPSHPLSGGGGS arms on tri-lysine core joined by peptide and iso-peptide bonds
B3: in assay [6], the binding constant estimated from the inhibition by fetuin was 1 µM and the streptavidin-peroxidase conjugate bound (average 100% value, without inhibitor) is 2.4 ng.
